SMILES strings stand for the structures. In brackets after ≈: the same amount, converted by molar mass.

In general, solubility refers to the concentration that dissolves in the medium under given conditions.

Data set [1] addresses T1, glucocerebrosidase (Gcase) (Homo sapiens, UniProt P04062).
T1 construct: micellar solution containing 10 nM GCase and 100 nM saposin C
T1 sequence (P04062 40-536): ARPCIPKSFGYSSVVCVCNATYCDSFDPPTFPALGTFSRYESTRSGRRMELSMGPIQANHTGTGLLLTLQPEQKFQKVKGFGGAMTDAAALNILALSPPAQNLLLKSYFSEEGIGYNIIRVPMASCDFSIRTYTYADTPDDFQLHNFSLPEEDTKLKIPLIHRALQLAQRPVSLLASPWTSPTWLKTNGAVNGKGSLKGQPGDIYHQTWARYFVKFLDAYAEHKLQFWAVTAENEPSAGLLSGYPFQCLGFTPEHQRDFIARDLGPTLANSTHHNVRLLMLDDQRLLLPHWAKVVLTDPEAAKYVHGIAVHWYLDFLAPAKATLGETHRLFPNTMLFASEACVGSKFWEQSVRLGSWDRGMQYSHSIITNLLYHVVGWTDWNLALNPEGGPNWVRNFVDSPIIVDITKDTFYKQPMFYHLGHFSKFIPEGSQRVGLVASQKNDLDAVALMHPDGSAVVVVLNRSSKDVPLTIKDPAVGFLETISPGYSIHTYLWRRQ
In words: Glucocerebrosidase (Gcase) activation assay, 4-methylumbelliferyl-beta-D-glucopyranoside substrate, with saposin C. The class given is biochemical. Conditions: 0.25 h; for activation at 0.1 µM: read-out: Percent Gcase Activation 0.1 μM Test Compound; for activation at 1 µM: read-out: Percent Gcase Activation 1 μM Test Compound. In a few lines:
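Human GCase (10 nM) with 100 nM saposin C in Triton X-100/phosphatidylserine micelles, citrate-phosphate pH 4.7, preincubated with compound 30 min RT; 2 mM 4-MU-β-glucoside (substrate solution) added, 15 min RT, stopped with glycine pH 12.5, fluorescence 365/440 nm. Screened at 1.0 and 0.1 μM; 8-point curves from 5 μM top.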

The nature of data set [2]: Compound solubility in water. It counts as physicochemical.

`CCCCCCOC1CCC(NC(=O)c2ncc3c(C)cc(C)nn23)CC1` (stereo not shown): in data set [1], the activation at 0.1 µM is 5 to 20% and the activation at 1 µM was more than 20%. In addition, the solubility in data set [2] is 23.1 µg/mL (≈ 62 µM).

Regarding `Cc1cc(-c2cccnc2)nc2c(C(=O)NC(C)(C)C3CC3)nsc12`, in data set [1], the activation at 0.1 µM was less than 5% and the activation at 1 µM lay in the range of 5 to 20%. The same compound returned a solubility in data set [2] of 0.7 µg/mL (≈ 1.99 µM).

As to `Cc1cc(-c2c(F)cccc2C#N)nn2c(C(=O)N[C@@H](C)C(F)(F)F)cnc12` [(S)-6-(2-Cyano-6-fluorophenyl)-8-methyl-N-(1,1,1-trifluoropropan-2-yl)imidazo[1,2-b]pyridazine-3-carboxamide], in data set [1], the activation at 0.1 µM lay within 5 to 20% and the activation at 1 µM is more than 20%.

In the case of `Cc1cc(C#N)c(-c2cc(C)c3ncc(C(=O)N[C@@H](C)C4CC4)n3n2)o1` [(S)-6-(3-Cyano-5-methylfuran-2-yl)-N-(1-cyclopropylethyl)-8-methylimidazo[1,2-b]pyridazine-3-carboxamide], in data set [1], the activation at 0.1 µM is more than 20% and the activation at 1 µM was more than 20%.

Consider `Cc1ccc(-c2cc(C)c3ncc(C(=O)N[C@@H](C4CC4)C(F)(F)F)n3n2)cn1` [(S)-6-(6-Methylpyridin-3-yl)-N-(1-cyclopropyl-2,2,2-trifluoroethyl)-8-methylimidazo[1,2-b]pyridazine-3-carboxamide], for which, in data set [1], the activation at 0.1 µM is less than 5% and the activation at 1 µM was more than 20%.

With `Cc1cc(-c2cccc(F)c2)nn2c(C(=O)N[C@@H](C3CC3)C(F)(F)F)ncc12` [(S)—N-(1-Cyclopropyl-2,2,2-trifluoroethyl)-2-(3-fluorophenyl)-4-methylimidazo[1,5-b]pyridazine-7-carboxamide], in data set [1], the activation at 0.1 µM is more than 20% and the activation at 1 µM was more than 20%.

As to `Cc1cc(N2CCN(C(C)C)C2=O)nn2c(C(=O)N[C@@H](C3CC3)C(F)(F)F)ncc12` [(S)—N-(1-Cyclopropyl-2,2,2-trifluoroethyl)-2-(3-isopropyl-2-oxoimidazolidin-1-yl)-4-methylimidazo[1,5-b]pyridazine-7-carboxamide], in data set [1], the activation at 0.1 µM was in the range of 5 to 20% and the activation at 1 µM was more than 20%.

Regarding `Cc1cc(-c2cc(C)c3cnc(C(=O)N[C@@H](C4CC4)C(F)(F)F)n3n2)sn1` [(S)—N-(1-Cyclopropyl-2,2,2-trifluoroethyl)-4-methyl-2-(3-methylisothiazol-5-yl)imidazo[1,5-b]pyridazine-7-carboxamide], in data set [1], the activation at 0.1 µM lay within 5 to 20% and the activation at 1 µM is more than 20%.

Regarding `Cc1cc(-c2ccc3ncn(C)c3c2)nn2c(C(=O)N[C@@H](C3CC3)C(F)(F)F)cnc12` [(S)—N-(1-Cyclopropyl-2,2,2-trifluoroethyl)-8-methyl-6-(1-methyl-1H-benzo[d]imidazol-6-yl)imidazo[1,2-b]pyridazine-3-carboxamide], in data set [1], the activation at 0.1 µM lay within 5 to 20% and the activation at 1 µM was more than 20%.

Regarding `Cc1cc(C)c2onc(C(=O)NC(C3CC3)C(F)(F)F)c2n1` (stereo not shown) [N-(1-Cyclopropyl-2,2,2-trifluoroethyl)-5,7-dimethylisoxazolo[4,5-b]pyridine-3-carboxamide], in data set [1], the activation at 0.1 µM is less than 5% and the activation at 1 µM is more than 20%.

With `Cc1cc(C)c2occ(C(=O)Nc3ccc4c(c3)CCC4)c2n1` [N-(2,3-Dihydro-1H-inden-5-yl)-5,7-dimethylfuro[3,2-b]pyridine-3-carboxamide], in data set [1], the activation at 0.1 µM lay in the range of 5 to 20% and the activation at 1 µM is more than 20%.

Consider `Cc1cc(C)c2snc(C(=O)Nc3ccc4c(c3)CCC4)c2n1` [N-(2,3-Dihydro-1H-inden-5-yl)-5,7-dimethylisothiazolo[4,5-b]pyridine-3-carboxamide], for which, in data set [1], the activation at 0.1 µM is more than 20% and the activation at 1 µM is more than 20%.

As to `Cc1cc(C)c2onc(C(=O)Nc3ccc4c(c3)CCC4)c2n1` [N-(2,3-Dihydro-1H-inden-5-yl)-5,7-dimethylisoxazolo[4,5-b]pyridine-3-carboxamide], in data set [1], the activation at 0.1 µM fell in the range of 5 to 20% and the activation at 1 µM is more than 20%.

Regarding `Cc1cc(C)c2onc(C(=O)NC(C)(C)C3CC3)c2n1` [N-(2-Cyclopropylpropan-2-yl)-5,7-dimethylisoxazolo[4,5-b]pyridine-3-carboxamide], in data set [1], the activation at 0.1 µM was 5 to 20% and the activation at 1 µM is more than 20%.

As for `Cc1cc(N2CC(C(C)C)OC2=O)nn2c(C(=O)N[C@H](C3CC3)C(F)(F)F)cnc12` (stereo partly drawn) [N—((R)-1-Cyclopropyl-2,2,2-trifluoroethyl)-6-(5-isopropyl-2-oxooxazolidin-3-yl)-8-methylimidazo[1,2-b]pyridazine-3-carboxamide], in data set [1], the activation at 0.1 µM lay within 5 to 20% and the activation at 1 µM was more than 20%.

For `Cc1cc(N2CC(C(C)C)OC2=O)nn2c(C(=O)N[C@@H](C3CC3)C(F)(F)F)cnc12` (stereo partly drawn) [N—((S)-1-Cyclopropyl-2,2,2-trifluoroethyl)-6-(5-isopropyl-2-oxooxazolidin-3-yl)-8-methylimidazo[1,2-b]pyridazine-3-carboxamide], in data set [1], the activation at 0.1 µM was less than 5% and the activation at 1 µM was more than 20%.

Values taken from patent US11168087B2, “Substituted imidazo[1,2-b]pyridazines, substituted imidazo[1,5-b]pyridazines, related compounds, and their use in the treatment of medical disorders” (BIAL—R&D Investments, S.A., priority 2016, dated 2021).
